In patent publication US20100197627A1, “PANCREATIC CANCER TREATMENT” (priority 2003, published 2010):

Experiments:
[1] = test system: tumor cell lines of the stomach, lung, colon and breast; details: oral CS-682; cited from earlier work
[2] = Body weight loss and toxicity of oral CS-682 in tumor-bearing nude mice (Example 1); assay type: in vivo; details: doses higher than 60 mg/kg per day, oral gavage
Experimental: (§1) CS-682 (1-(2-C-cyano-2-deoxy-β-D-arabino-pentofuranosyl)-N^4-palmitoylcytosine, Sankyo Pharmaceuticals, Tokyo) was administered by oral gavage. Prior to the first treatment, mice were randomized into eight groups of 10 mice each for treatment purposes.
(§2) Groups 2, 3 and 4 received 40, 60 and 80 mg/kg/dose CS-682, respectively, each scheduled treatment day.
(§3) […] received 20, 30, 40 and 50 mg/kg/dose CS-682 twice each treatment day, respectively.
(§4) Dosing was initiated five days after surgical orthotopic implantation, and was performed five days each week until death.
External, in vivo whole body imaging, for at least once a week, mice were weighed and underwent external, in vivo imaging. This was performed in a fluorescent light box illuminated by fiberoptic lighting at 470 nm (Lightools Research, Encinitas, Calif.). Emitted fluorescence was collected through a long-pass filter GG475 (Chroma Technology, Battleboro, Vt.) on a Hamamatsu C5810 3-chip cooled color CCD camera (Hamamatsu Photonics Systems, Bridgewater, N.J.). […] Images were processed for contrast and brightness and analyzed with the use of Image Pro Plus 3.1 software (Media Cybernetics, Silver Spring, Md.). Real-time determination of tumor burden was performed by quantifying fluorescent surface area, as described previously (Bouvet, M., et al., Cancer Res. (2002) 62:1534-1540).

[3] = test system: MIA-PaCa-2-RFP pancreatic cancer; assay: Primary and adjuvant (after surgical resection) CS-682 in orthotopic MIA-PaCa-2-RFP metastatic pancreatic cancer mouse model (Example 2); assay type: in vivo, nude mice
Text: The efficacy of oral CS-682 in the adjuvant treatment of metastatic pancreatic cancer was studied. […] The study discussed below used a highly aggressive clone of the human pancreatic cancer cell line MIA-PaCa-2 pancreatic cancer cell line that was engineered, as discussed above, to selectively express high levels of the Discosoma red fluorescent protein. This brightly fluorescent model facilitated the noninvasive quantification of tumor burden throughout the course of treatment.
The MIA-PaCa-2 pancreatic cancer cell line and the animals used in the study were prepared as discussed in Example 1, with the following exceptions. Following orthotopic implantation of MIA-PaCa-2-RFP tumors, each mouse in a treatment group requiring surgical resection of the primary pancreatic tumor was anesthetized and prepared for surgery. The peritoneum was subsequently reopened through the original incision and an examination of adjacent structures was performed to ensure that macroscopic disease was localized to the pancreas. All grossly visible tumor was removed using sharp dissection. Hemostasis was achieved using 6-0 sutures. The abdomen was then closed in two layers.
(§5) Seven days after SOI, mice were randomized into eight groups of 10 mice each, depending upon whether they were to be treated by surgical resection, chemotherapy or both. Mice in groups 1-4 were not treated surgically. […] Mice in groups 2-4 were treated with primary CS-682 at doses of 40, 50 Or 60 mg/kg each treatment day, respectively, according to the treatment schedules outlined below.
(§6) Mice in groups 5-8 underwent surgical resection of their primary tumors 7 days after orthotopic implantation by a single blinded surgeon. Mice in group 5 received no additional chemotherapy; mice in groups 6-8 received adjuvant CS-682 at doses of 40, 50 or 60 mg/kg each treatment day, respectively.
(§7) CS-682 was administered by oral gavage. Treatment with primary or adjuvant CS-682 was initiated 9 days after orthotopic tumor implantation (2 days after surgical resection when applicable) and was to be administered five times each treatment week for a total of 5 weeks or until death. […] In these groups, CS-682 was administered 9 times in weeks 1 and 2 after SOI and then 10 times in weeks 4 and 5, with a treatment hiatus during week 3.
(§8) Twice/week, mice were weighed and underwent external in vivo imaging. This was performed in a fluorescent light box illuminated by fiberoptic lighting at 470 nm (Lightools Research, Encinitas Calif.). […] Emitted fluorescence was collected through a long-pass filter GG475 (Chroma Technology, Battleboro, Vt.) on a Hamamatsu C5810 3-chip cooled color charge-coupled device camera (Hamamatsu Photonics Systems, Bridgewater, N.J.). High-resolution images of 1024×724 pixels were captured directly on an IBM PC or continuously through video output on a high-resolution Sony VCR model SLV-R1000 (Sony Corp., Tokyo, Japan). Images were processed for contrast and brightness and analyzed with the use of Image Pro Plus 3.1 software (Media Cybernetics, Silver Spring, Md.). Real-time determination of tumor burden was performed by quantifying fluorescent surface area.
Mice were sacrificed and explored when they appeared premorbid. After euthanasia, each mouse underwent laparotomy and sternotomy. Excitation of RFP in the light box, described above, facilitated identification of primary and metastatic disease by fluorescence visualization. After performing full-body open images, the solid organs were removed, and their surfaces were thoroughly examined for any evidence of metastases. Fluorescence microscopy was accomplished using a Leica fluorescence stereo microscope model LZ12 (Leica Microsystems, Inc., Bannockburn, Ill.) equipped with a mercury 50-W lamp power supply. Selective excitation of RFP was produced through a […]. Emitted fluorescence was collected by the Hamamatsu camera system described above. […]

[4] = test system: MIA-PaCa-2-RFP pancreatic cancer; assay: Efficacy of oral CS-682 in surgical orthotopic implantation (SOI) mouse model of MIA-PaCa-2-RFP pancreatic cancer (Example 1); assay type: in vivo, nude mice (NCr-nu); details: for median survival: control 17 days; for mice with evident intra-abdominal fluid (ascites) on examination: 100% of controls within 16 days
Experimental: The model employed pancreatic tumors derived from the MIA-PaCa-2 pancreatic cancer cell line.
The MIA-PaCa-2 pancreatic cancer cell line was obtained from the American Type Culture Collection (Rockville, Md.), maintained in DMEM media supplemented with 10% heat-inactivated fetal bovine serum and 1% penicillin and streptomycin (Gibco-BRL, Life Technologies, Inc., Grand Island, N.Y.) and cultured at 37° C. in a 5% CO2 incubator.
The pDsRed-2 vector (Clontech Laboratories Inc., Palo Alto, Calif.) was used to engineer MIA-PaCa-2 clones stably expressing RFP. This vector expresses RFP and the neomycin resistance gene on the same bicistronic message. pDsRed-2 was produced in PT67 packaging cells. RFP transduction was initiated by incubating 20% confluent MIA-PaCa-2 cells with retroviral supernatants of the packaging cells and DMEM for 24 hours. Fresh medium was replenished at this time and cells were allowed to grow in the absence of retrovirus for 12 hours. This procedure was repeated until high levels of RFP expression, as determined using fluorescence microscopy, were achieved. Cells were then harvested by trypsin/EDTA and subcultured into selective medium that contained 200 μg/ml G418. The level of G418 was increased to 2000 μg/ml stepwise. Clones expressing high levels of RFP were isolated with cloning cylinders as needed, and were amplified and transferred using conventional culture methods. High RFP-expression clones were isolated in the absence of G418 for 10 passages to select for stable expression of RFP in vivo.
Male nude mice (NCr-nu) between 4-6 weeks of age were maintained in a barrier facility on HEPA-filtered racks. The animals were fed with autoclaved laboratory rodent diet (Teckland LM-485; Western Research Products, Orange, Calif.). Animal experiments were performed in accordance with the Guidelines for the Care and Use of Laboratory Animals (NIH Publication Number 85-23) under assurance number A3873-01.
Red-fluorescent human pancreatic cancer xenografts were established in nude mice by surgical orthotopic implantation (SOI). Briefly, MIA-PaCa-2-RFP tumors in the exponential growth phase, grown subcutaneously in nude mice, were resected aseptically. Necrotic tissues were cut away, and the remaining healthy tumor tissues were cut with scissors and minced into 1 mm^3 pieces in RPMI 1640 medium. Mice were then anesthetized and their abdomens were sterilized with alcohol. An incision was then created through the left upper abdominal pararectal line and peritoneum. The pancreas was carefully exposed and two tumor pieces were transplanted onto the middle of the gland using a single 8-0 surgical suture (Davis-Geck, Inc., Manati, Puerto-Rico). The pancreas was then returned into the peritoneal cavity, and the abdominal wall and the skin were closed in two layers using 6-0 surgical sutures. All procedures were performed with a 7× microscope (Olympus) or standard surgical loupes.
as §1, §2, §3, §4
External, in vivo whole body imaging, for at least once a week, mice were weighed and underwent external, in vivo imaging. This was performed in a fluorescent light box illuminated by fiberoptic lighting at 470 nm (Lightools Research, Encinitas, Calif.). Emitted fluorescence was collected through a long-pass filter GG475 (Chroma Technology, Battleboro, Vt.) on a Hamamatsu C5810 3-chip cooled color CCD camera (Hamamatsu Photonics Systems, Bridgewater, N.J.). […]

[5] = test system: subcutaneously-implanted solid tumor xenografts; details: several subcutaneously-implanted solid tumor xenografts; cited from earlier work
[6] = Analysis of toxicity (body weight, general appearance) of CS-682 in Example 2 mice; assay type: in vivo; details: for body weight: oral gavage
Experimental: as §5, §6, §7, §8
The body weight and general appearance of each mouse were monitored and recorded twice weekly as evidence of systemic toxicity. […] Wasting of body fat, most pronounced in the interscapular area of the back, was a common late finding that occurred in conjunction with disseminated disease.

In the case of CCCCCCCCCCCCCCCC(=O)Nc1ccn([C@@H]2O[C@H](CO)[C@@H](O)[C@@H]2C#N)c(=O)n1 [CS-682, 1-(2-C-cyano-2-deoxy-β-D-arabino-pentofuranosyl)-N^4-palmitoylcytosine], the “cytotoxic activity compared with parent compound CNDAC” value [1] is listed as “more potent cytotoxic activity than its parent compound”, the toxicity-related death [2] is listed as “toxicity-related death was observed in a significant number of mice” and the “mice that lived at least 60 days” value ([3]; adjuvant 50 mg/kg after surgical resection) is listed as 30%. The “animals with at most local disease confined to one abdominal quadrant” value ([3]; adjuvant 50 mg/kg after surgical resection, day 23) was 70%, the median survival ([3]; adjuvant 50 mg/kg after surgical resection, untreated 26 days, resection alone 28 days) was 48 days and the “time after completion of chemotherapy until distant metastasis seen” value ([3]; adjuvant 50 mg/kg, the 30% of mice with long-term survival) was 10 days. For the same compound, the “animals showing signs of fluid retention (ascites) at the time of their death” value ([3]; adjuvant CS-682 after surgical resection) was 20%, the “survival versus treatment controls” value ([3]; adjuvant CS-682 after surgical resection, all doses tested (40, 50, 60 mg/kg)) was “significant increase in survival over treatment controls” and the survival versus untreated ([3]; primary CS-682 without resection, 40, 50 and 60 mg/kg) was “significantly enhanced the survival”. The median survival ([4]; 20 mg/kg twice daily oral, p=0.003) was 27 days, the “tumor growth (mean area of external RFP autofluorescence)” value ([4]; 20 mg/kg twice daily, 40 mg/kg daily and 60 mg/kg daily, p<0.05 at each time point) was “inhibit pancreatic cancer growth” and the median survival ([4]; 30 mg/kg twice daily oral) was 19 days. The “time until widespread tumor metastasis visible by whole-body RFP imaging” value ([4]; 40 mg/kg and 60 mg/kg daily, control within first two weeks) was “not visible until the third and fourth week post-implantation”, the “development of metastases at autopsy (diaphragm, portal nodes, liver, intestinal nodes, kidney)” value ([4]; 40 mg/kg daily) was “significantly inhibited the development of metastases” and the median survival ([4]; 40 mg/kg daily oral, p=0.0008) was 35 days. The “mice with locally confined disease” value ([4]; 40 mg/kg daily, day 16 after implantation) was 90%, the “mice with evident intra-abdominal fluid (ascites) on examination” value ([4]; 40 mg/kg daily) was 50% and the “primary tumor average weight at autopsy” value ([4]; 40 mg/kg daily, control 5.163 g, p=0.16) was 3.935 g. For the same compound, the median survival ([4]; 40 mg/kg twice daily oral) was 19 days, the median survival ([4]; 50 mg/kg twice daily oral) was 18 days and the “effect on primary tumor growth (weight at autopsy)” value ([4]; 60 mg/kg daily (p=0.0004), 20 mg/kg twice daily (p=0.003)) was “significant effect on primary tumor growth”. For the same compound, the median survival ([4]; 60 mg/kg daily oral, p=0.002) was 36 days, the “mice with evident intra-abdominal fluid (ascites) on examination” value ([4]; 60 mg/kg daily) was 10% and the median survival ([4]; 80 mg/kg daily oral) was 19 days. For the same compound, the antitumor activity [5] was “potent antitumor activity”, the body weight ([6]; 40 mg/kg each treatment day) was “not associated with a significant loss in body weight” and the body weight ([6]; 50 mg/kg each treatment day, chronic) was “did not lead to a significant loss of body weight”. The “loss in body weight” value ([6]; 60 mg/kg, by day 20, after first nine doses) was 15% and the “animals lost to toxicity” value ([6]; 60 mg/kg, modified schedule with hiatus in week 3, day 41) was 1 animal.
